This passage reports Activity and IC50 results from ChEMBL document CHEMBL5042509, “Benzophenone Glucosides and B-Type Proanthocyanidin Dimers from Zambian Cassia abbreviata and Their Trypanocidal Activities” (J Nat Prod, 2022).

Assay [1] relates to Trypanosoma brucei rhodesiense. Briefly: Trypanocidal activity against Trypanosoma brucei rhodesiense assessed as parasite growth inhibition at 50 ug/ml incubated for 3 days by Celltiter-Glo luminescence assay. Type of assay: functional. Also on record: scale not given: the % may be the effect or the level left. The conditions noted are these: dose 50 µg/ml; time 3 day. For orientation: ATP-based viability assays read luminescence as a measure of living cells.

The subject of assay [2] is Trypanosoma brucei rhodesiense. Briefly: Trypanocidal activity against Trypanosoma brucei rhodesiense IL1501 assessed as parasite growth inhibition incubated for 3 days by Celltiter-Glo luminescence assay. As to conditions: IL1501, 72 h. Type of assay: functional, organism-based.
Assay [3] has as its system Trypanosoma brucei gambiense. The experiment in a line: Trypanocidal activity against Trypanosoma brucei gambiense IL1922 assessed as parasite growth inhibition at 50 ug/ml incubated for 3 days by Celltiter-Glo luminescence assay. In kind it is functional. Also on record: scale not given: the % may be the effect or the level left. As to conditions: dose 50 µg/ml; time 3 day.

The subject of assay [4] is Trypanosoma congolense. Briefly: Trypanocidal activity against Trypanosoma congolense IL3000 assessed as parasite growth inhibition incubated for 3 days by Celltiter-Glo luminescence assay. The conditions noted are these: IL3000, 72 h.
In assay [5] the test system is Trypanosoma brucei rhodesiense. Briefly: Trypanocidal activity against Trypanosoma brucei rhodesiense IL1501 assessed as parasite growth inhibition at 50 ug/ml incubated for 3 days by Celltiter-Glo luminescence assay. The conditions noted are these: dose 50 µg/ml; time 3 day. In kind it is functional. Also on record: scale not given: the % may be the effect or the level left.

Assay [6] relates to Trypanosoma evansi. Briefly: Trypanocidal activity against Trypanosoma evansi assessed as parasite growth inhibition at 50 ug/ml incubated for 3 days by Celltiter-Glo luminescence assay. Type of assay: functional. Also on record: scale not given: the % may be the effect or the level left. The conditions noted are these: dose 50 µg/ml; time 3 day.
Assay [7] has as its system Trypanosoma brucei brucei. Briefly: Trypanocidal activity against Trypanosoma brucei brucei GUTat3.1 assessed as parasite growth inhibition incubated for 3 days by Celltiter-Glo luminescence assay. As to conditions: GUTat3.1, 72 h. Type of assay: functional, organism-based.
Assay [8] has as its system Trypanosoma evansi. The experiment in a line: Trypanocidal activity against Trypanosoma evansi assessed as parasite growth inhibition incubated for 3 days by Celltiter-Glo luminescence assay. In kind it is functional, organism-based. The conditions noted are these: 72 h.
For assay [9], the system named is Trypanosoma brucei brucei. Briefly: Trypanocidal activity against Trypanosoma brucei brucei GUTat3.1 assessed as parasite growth inhibition at 50 ug/ml incubated for 3 days by Celltiter-Glo luminescence assay. In kind it is functional. Also on record: scale not given: the % may be the effect or the level left. As to conditions: dose 50 µg/ml; time 3 day.
In assay [10] the test system is Trypanosoma brucei gambiense. Briefly: Trypanocidal activity against Trypanosoma brucei gambiense IL1922 assessed as parasite growth inhibition incubated for 3 days by Celltiter-Glo luminescence assay. Type of assay: functional, organism-based. The conditions noted are these: IL1922, 72 h.
Assay [11] has as its system Trypanosoma congolense. The experiment in a line: Trypanocidal activity against Trypanosoma congolense IL3000 assessed as parasite growth inhibition at 50 ug/ml incubated for 3 days by Celltiter-Glo luminescence assay. Also noted: scale not given: the % may be the effect or the level left. The conditions noted are these: dose 50 µg/ml; time 3 day.
Assay [12] relates to Trypanosoma brucei rhodesiense. Briefly: Trypanocidal activity against Trypanosoma brucei rhodesiense assessed as parasite growth inhibition incubated for 3 days by Celltiter-Glo luminescence assay. In kind it is functional, organism-based. The conditions noted are these: 72 h.

Converted amounts (≈) assume the structure as drawn.

Turning to `Oc1ccc([C@H]2Oc3cc(O)cc(O)c3C[C@@H]2O)cc1`, the Activity in [1] was determined as 99.71%; in assay [3], 90.28%; in assay [5], 96.07%; in the assay on Trypanosoma evansi [6] it was 99.7%; in assay [9] it was 98.54%; in the assay on Trypanosoma congolense [11], 99.57%. Besides, the IC50 was determined as 45.7 µg/mL (≈ 167 µM) in assay [2]; 28.3 µg/mL (≈ 103 µM) with Trypanosoma congolense [4]; 38.6 µg/mL (≈ 141 µM) in assay [7]; 14.4 µg/mL (≈ 52.6 µM) in the assay on Trypanosoma evansi [8]; 46.4 µg/mL (≈ 169 µM) in [10]; 4.03 µg/mL (≈ 14.7 µM) in assay [12].

Take `Oc1ccc2c(c1)O[C@H](c1ccc(O)c(O)c1)[C@@H](O)[C@@H]2c1c(O)cc(O)c2c1O[C@H](c1cc(O)c(O)c(O)c1)[C@H](O)C2`: the Activity in assay [1] is listed as 99.93%; in [3], 14.68%; in assay [5], 24.11%; in the assay on Trypanosoma evansi [6], 57.8%; in assay [9] it was 10.18%; in the assay on Trypanosoma congolense [11] it was 72.01%. The values for the concentration for half-maximal inhibition (IC50) (in the assay on Trypanosoma congolense [4]; with Trypanosoma evansi [8]; in assay [12]) were 13.1 µg/mL (≈ 22.6 µM), 12.2 µg/mL (≈ 21.2 µM) and 10.9 µg/mL (≈ 18.9 µM), respectively.

As to `N=C(N)c1ccc(/N=N/Nc2ccc(C(=N)N)cc2)cc1` [DIMINAZENE], the IC50 in assay [2] amounted to 0.013 µg/mL (≈ 0.0462 µM); in the assay with Trypanosoma congolense [4] it was 0.065 µg/mL (≈ 0.231 µM); in [7] it was 0.02 µg/mL (≈ 0.0711 µM); with Trypanosoma evansi [8] it was 0.0033 µg/mL (≈ 0.0117 µM); in assay [10], 0.0066 µg/mL (≈ 0.0235 µM); in assay [12] it was 0.081 µg/mL (≈ 0.288 µM).

Turning to `NCCC[C@](N)(C(=O)O)C(F)F` [EFLORNITHINE, (S)-], the 50% inhibitory concentration (IC50) worked out at 8.38 µg/mL (≈ 46 µM) in assay [2]; 2.94 µg/mL (≈ 16.1 µM) with Trypanosoma congolense [4]; 7.03 µg/mL (≈ 38.6 µM) in [7]; 10.4 µg/mL (≈ 57.2 µM) with Trypanosoma evansi [8]; 6.68 µg/mL (≈ 36.7 µM) in assay [10]; 6.5 µg/mL (≈ 35.7 µM) in assay [12].

Turning to `Oc1cc(O)c2c(c1)O[C@H](c1cc(O)c(O)c(O)c1)[C@H](O)C2` [EPIGALLOCATECHIN], the Activity is given as 100.06% in [1]; 85.1% in assay [3]; 66.56% in [5]; 99.99% with Trypanosoma evansi [6]; 62.43% in assay [9]; 99.94% in the assay with Trypanosoma congolense [11]. For the same compound, the IC50 in the assay with Trypanosoma congolense [4] stood at 2.38 µg/mL (≈ 7.77 µM); with Trypanosoma evansi [8], 1.58 µg/mL (≈ 5.16 µM); in assay [12], 1.62 µg/mL (≈ 5.29 µM).

In the case of `N=C(N)c1ccc(OCCCCCOc2ccc(C(=N)N)cc2)cc1` [PENTAMIDINE], the 50% inhibitory concentration (IC50) was 0.0099 µg/mL (≈ 0.0291 µM) in [2]; 0.11 µg/mL (≈ 0.323 µM) with Trypanosoma congolense [4]; 0.014 µg/mL (≈ 0.0411 µM) in assay [7]; 0.00033 µg/mL (≈ 0.000969 µM) in the assay with Trypanosoma evansi [8]; 0.0049 µg/mL (≈ 0.0144 µM) in [10]; 0.0017 µg/mL (≈ 0.00499 µM) in assay [12].

For the compound `Cc1ccc(C(=O)Nc2ccc(S(=O)(=O)O)c3cc(S(=O)(=O)O)cc(S(=O)(=O)O)c23)cc1NC(=O)c1cccc(NC(=O)Nc2cccc(C(=O)Nc3cc(C(=O)Nc4ccc(S(=O)(=O)O)c5cc(S(=O)(=O)O)cc(S(=O)(=O)O)c45)ccc3C)c2)c1` [SURAMIN], the 50% inhibitory concentration (IC50) is 0.11 µg/mL (≈ 0.0848 µM) in assay [2]; 10.2 µg/mL (≈ 7.9 µM) in the assay on Trypanosoma congolense [4]; 0.094 µg/mL (≈ 0.0725 µM) in assay [7]; 0.54 µg/mL (≈ 0.416 µM) with Trypanosoma evansi [8]; 0.092 µg/mL (≈ 0.0709 µM) in [10]; 0.094 µg/mL (≈ 0.0725 µM) in assay [12].

As a reminder, the IC50 is the concentration at which inhibition is half-maximal.
